Laboratory results reported in paper PMC10606834, “Is the Neuropeptide PEN a Ligand of GPR83?” (International Journal of Molecular Sciences, 2023).

Tests used:
[1] = tested on: GPR83 and GPR83del with Gα16 (HEK293); assay: Intracellular calcium mobilization, Gα16-transfected HEK293 cells; type: cell-based, human; settings: 10 µM PEN, 100 µM carbachol, 100 µM ATP, Fluo4-AM fluorescence, duplicate, repeated at least two times
Protocol: (§1) As activation of many GPCRs is coupled to calcium mobilization from intracellular stores, GPR83 was probed for ligand-dependent calcium release. Wild-type HEK293 cells and HEK293 clones overexpressing either full-length GPR83 or the N-terminal deletion variant GPR83del were exposed to buffer or one of two independent synthesis batches (PEN #1 and PEN #2) of the neuropeptide PEN, while calcium indicator fluorescence was recorded. […] Calcium release was also tested in a second cell line, osteosarcoma U2OS cells, using various stably expressing clones. […] Therefore, HEK293 cells transfected with Gα16 were employed to investigate a potential GPR83-dependent calcium mobilization with PEN. […] A number of GPCRs show ligand-independent basal calcium activity. However, in an experiment comparing basal calcium levels in wild-type HEK293 cells and in HEK293 clones overexpressing four different variants of GPR83, they were not found to be different (Figure 2D).
(§2) Figure 2 Investigation of ligand-dependent and ligand-independent intracellular calcium mobilization. (A) Wild-type HEK293 cells and HEK293 cell clones overexpressing either GPR83 or the deletion variant GPR83del were incubated with either buffer or the specified ligand (10 µM PEN or co mix = 100 µM carbachol, 100 µM ATP, 40 µM dimaprit, or 50 µM ionomycin). (B) Calcium indicator fluorescence intensity traces over 60 s of various U2OS cell clones overexpressing untagged or HA-tagged GPR83 or the deletion variant GPR83del before and after the addition of buffer or ligand (co mix as in (A) or 50 µM ionomycin or 10 µM PEN). […]
(§3) Cells were seeded at 50,000 cells/well in a poly-D-lysine coated 96-well black well/clear bottom plate (BD Falcon, Franklin Lakes, NJ, USA) and cultured overnight. […] Fluorescence was recorded with the fluorescence imaging plate reader CellLux (Perkin Elmer, Waltham, MA, USA) simultaneously in all wells at an excitation wavelength of 488 nm and emission wavelength of 510 nm in 1.5 s intervals over a period of 4 min. Fluorescence data were generated in duplicate, and experiments were repeated at least two times.

[2] = tested on: GPR83 and deletion variant GPR83del (HEK293 clones; wild-type HEK293 as comparison); assay: Intracellular calcium mobilization, HEK293 cells; type: cell-based, human; settings: 10 µM PEN; co mix = 100 µM carbachol, 100 µM ATP, 40 µM dimaprit; 50 µM ionomycin; HEK293 wild-type, GPR83 or GPR83del clones; Fluo4-AM fluorescence, compared with buffer; duplicate, repeated at least two times
Protocol: as §1, §2, §3

Structure (SMILES)	calcium signal [1]	calcium signal [2]
Nc1ncnc2c1ncn2[C@@H]1O[C@H](COP(=O)(O)OP(=O)(O)OP(=O)(O)O)[C@@H](O)[C@H]1O [ATP]	strongly enhanced the calcium signal	–
C[C@H](CCC(=O)O)C[C@H](C)C[C@H](C)C(=O)/C=C(\O)[C@H](C)C[C@H](C)C/C=C/[C@@H](C)[C@@H](O)[C@@H](C)[C@@H](O)C[C@@H]1CC[C@@](C)([C@H]2CC[C@@](C)([C@@H](C)O)O2)O1 [ionomycin, reference compound]	–	clear calcium signal above buffer background
C[N+](C)(C)CCOC(N)=O [carbachol]	strongly enhanced the calcium signal	–
